Data reported in patent US9822157B2 (priority 2013, dated 2017).
Like-named read-outs stand apart in the source and are kept apart here. * marks the point of attachment. Palmitoyl = CCCCCCCCCCCCCCCC(=O)*

Tests used:
human ferroportin = target: T1, human ferroportin (Homo sapiens, UniProt Q9NP59); type: cell-based; conditions: for % Activity At 1 uM: at 1 uM peptide, monomers and disulphide-linked dimers
T1 sequence (Q9NP59 1-571): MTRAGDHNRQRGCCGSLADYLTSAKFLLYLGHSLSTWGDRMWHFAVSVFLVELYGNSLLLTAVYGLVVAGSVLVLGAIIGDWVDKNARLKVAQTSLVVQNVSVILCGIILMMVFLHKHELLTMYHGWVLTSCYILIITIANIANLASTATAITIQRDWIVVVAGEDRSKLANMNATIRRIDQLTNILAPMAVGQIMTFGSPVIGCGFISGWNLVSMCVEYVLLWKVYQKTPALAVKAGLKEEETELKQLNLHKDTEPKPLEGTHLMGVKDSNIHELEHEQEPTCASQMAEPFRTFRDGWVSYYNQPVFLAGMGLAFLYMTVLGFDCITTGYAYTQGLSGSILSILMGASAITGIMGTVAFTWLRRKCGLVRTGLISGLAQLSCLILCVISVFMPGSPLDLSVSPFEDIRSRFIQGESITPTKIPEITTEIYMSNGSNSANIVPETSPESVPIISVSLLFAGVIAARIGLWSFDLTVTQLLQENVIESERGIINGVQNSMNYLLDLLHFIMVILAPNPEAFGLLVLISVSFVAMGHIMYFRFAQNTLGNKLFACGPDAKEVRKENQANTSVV
Excerpt: The cDNA encoding the human ferroportin (SLC40A1) was cloned from a cDNA clone from Origene (NM_014585). The DNA encoding the ferroportin was amplified by PCR using primers also encoding terminal restriction sites for subcloning, but without the termination codon. The ferroportin receptor was subcloned into a mammalian GFP expression vector containing a neomycin (G418) resistance marker in such that the reading frame of the ferroportin was fused in frame with the GFP protein. The fidelity of the DNA encoding the protein was confirmed by DNA sequencing. HEK293 cells were used for transfection of the ferroportin-GFP receptor expression plasmid. The cells were grown according to standard protocol in growth medium and transfected with the plasmids using Lipofectamine (manufacturer's protocol, Invitrogen). […] The cells were propagated and frozen in aliquots.
A retro inverse peptide is a peptide with a reversed sequence in all D amino acids. […] The EC50 of these reference compounds for ferroportin degradation was determined according to the activity assay described above.

[1] = Stability in human serum (LC-MS); type: in vitro ADME; conditions: 10 μM peptide, 37 degrees C, up to 24 hours
Experimental: Serum stability experiments were undertaken to complement the in vivo results and assist in the design of potent, stable Ferroportin agonists. In order to predict the stability in humans, ex vivo stability studies were initially performed in human serum.
Samples were taken at various time points up to 24 hours. The samples were separated from serum proteins and analysed for the presence of the peptide of interest using LC-MS. The amount of intact peptide in each sample was calculated using the analyte peak area in relation to the zero time point.
(§1) The peptides were also tested for other pharmacokinetic/pharmacodynamic (PK/PD) parameters using methods commonly know by the skilled artisan. These parameters included determinations regarding stability (hours stable in plasma from the indicated human or rat subject), half-life in mice, and in vitro activity (EC50), tested as described in Example 2.

serum iron [2] = test: Reduction of free plasma iron in rats (serum iron after i.p. dosing); type: in vivo, Sprague-Dawley rats; conditions: IP dosing, FIGS. 2 and 3
Experimental: At Day 1, the animals were monitored for free Fe^2+ in serum. In order to reach a homogenous serum level, Fe^2+ was analyzed and a homogenous cohort of 7 or 8 animals randomized to each treatment group. At Day 2, an acute experiment where the animals were subjected to i.p. dosing of test compound and subsequent tail vein blood samples. Prior to dosing, the animals were put under a heating lamp for 3-5 minutes. Blood samples were drawn from the tail vein from all animals in order to determine serum iron levels prior to vehicle or compound dosing. Animals were dosed i.p. with 1 ml of test substance in vehicle or just vehicle and blood samples of 250 μl was drawn from each animal at t=0, 60, 120, 240, 360 min and 24 hours in the study of the reference compound. The dose response study performed with Retro Inverse (RI) mini-Hepcidin (Reference compound), and the efficacy study performed with Compound No. 2 were performed as two separate experiments. […]
Male Sprague-Dawley rats weighing 200-250 g were used in the study. […] Humane endpoints were applied, according to OECD's “Guidelines for Endpoints in Animal Study Proposals.” The animals were monitored daily.
Iron content in plasma/serum is measured for iron content using a colorimetric assay on the Cobas c 111 according to instructions from the manufacturer of the assay (assay: IRON2: ACN 661). […]

serum iron [3] = test: In vivo serum iron reduction in mice; set-up: species or system mice (C57-BL6); conditions: tested in rats or in mice
Experimental: Instead of rats, mice (C57-BL6) were tested.
A similar experiment was performed with lower doses to assess the dose response of these compounds for inducing serum iron reduction. Methods were as described above in this Example, except for the following parameters: n=4 mice/group, however n=8 for the vehicle, as two groups were pooled. Mice were administered test compounds at two separate dosages (300 nmol/kg or 1000 nmol/kg), via subcutaneous injection. Serum iron levels were assessed as in Example 8 two hours after peptide or vehicle injection. […] Moreover, it was clear that several of the compounds were able to induce maximum effects at dosages as low as 300 nmol/kg.
The route of peptide administration was via subcutaneous injection, unless otherwise indicated as having been via intraperitoneal injection (this is noted on the table by “i.p.” in parentheses following the “yes” or “no” determination).
as §1

serum iron [4] = test: In vivo serum iron reduction in mice; set-up: species or system mice (C57-BL6); conditions: C57BL6 mice, time course, FIG. 6
[5] = Hepcidin analog peptides, read-out: Potency EC50
[6] = read-out: EC50 (nM) (n > 3), alanine scan of Compound 18
[7] = read-out: EC50 (nM) (n = 3), in vitro activity as in Example 2, peptide monomers and dimers dimerized through a single disulphide linkage, n = 3

H-DTHFPICIFGPRSKGWACM-NH2 (cysteine pairing not given here) [Compound 47]
EC50 (human ferroportin; [5]): 313 nM
EC50 (human ferroportin; [6]): 313 nM
t½ [1]: ~40 h

H-DTHFPICIFGPRSKGWVCM-NH2 (cysteine pairing not given here) [Compound 18]
EC50 (human ferroportin; [5]): 125 nM
EC50 (human ferroportin; [6]): 125 nM
t½ [1]: 2.32 h

Hy-DPhe-DIle-DCys-DIle-DPro-DPhe-DHis-DThr-DAsp-NH2 [RI-Mini Hepcidin, reference compound]
serum iron level (serum iron [2]): in neither case significant

Hy-DTHF-(D)--Ala-CIIF-NH2 [Compound 281]
Potency EC50 (nM) (human ferroportin; Hepcidin analog peptides): Inactive
EC50 (nM) (n > 3) (human ferroportin; alanine scan of Compound 1): Not active

Hy-DTHF-[Sarc]-CIIFGPRSKGWVCK-NH2 [Compound 127]
Potency EC50 (nM) (human ferroportin; Hepcidin analog peptides): Inactive

Hy-DTHF-[β-Ala]-CIIFGPRSKGWVCK-NH2 [Compound 129]
Potency EC50 (nM) (human ferroportin; Hepcidin analog peptides): Inactive

Hy-DTHFPCIIF-NH2 [Compound 1]
% Activity At 1 uM (human ferroportin): 92%

Hy-DTHFPIC(1)IFC(2)C(3)GC(2)C(4)HRSKC(3)GMC(4)C(1)KT-OH [Hepcidin, reference compound]
In Vivo Activity (s.c.) 300 nmol/kg (serum iron [3]; 300 nmol/kg): Yes
In Vivo Activity (s.c.) 1000 nmol/kg (serum iron [3]; 1000 nmol/kg): Yes

Hy-ETHFPCIIF-NH2 [Compound 300]
% Activity At 1 uM (human ferroportin): 77%
EC50 (human ferroportin; [7]): > 300 nM

Hy-LTHFPCIIF-NH2 [Compound 299]
% Activity At 1 uM (human ferroportin): 64%
EC50 (human ferroportin; [7]): > 300 nM

Isovaleric acid-DTHAPCIKFEPRSKGWECK-NH2 [Compound 243]
Potency EC50 (nM) (human ferroportin; Hepcidin analog peptides): Inactive

Isovaleric acid-DTHFPAIIF-NH2 [Compound 289]
Potency EC50 (nM) (human ferroportin; Hepcidin analog peptides): Inactive

Isovaleric acid-DTHFPCIEFGPRSKGWVCK-NH2 [Compound 15]
In Vivo Activity (s.c.) 1000 nmol/kg (serum iron [3]; 1000 nmol/kg): Minor

Isovaleric acid-DTHFPCIIF-NH2 [Compound 288]
% Activity At 1 uM (human ferroportin): 100%

Isovaleric acid-DTHFPCIIFEPRSKGWVCK-NH2 [Compound 105]
In Vivo Activity (s.c.) 300 nmol/kg (serum iron [3]; 300 nmol/kg): Yes
In Vivo Activity (s.c.) 1000 nmol/kg (serum iron [3]; 1000 nmol/kg): Yes

Isovaleric acid-DTHFPCIIFGPRSKGCK-NH2 [Compound 115]
In Vivo Activity (s.c.) 1000 nmol/kg (serum iron [3]; 1000 nmol/kg): No

Isovaleric acid-DTHFPCIIFGPRSRGWVCK-NH2 [Compound 3]
In Vivo Activity 300 nmol/kg (i.p.) (serum iron [3]; 300 nmol/kg, i.p.): No (i.p.)
In Vivo Activity 1000 nmol/kg (i.p.) (serum iron [3]; 1000 nmol/kg, i.p.): No (i.p.)

Isovaleric acid-DTHFPCIKF-K(PEG8)-PRSKGWVCK-NH2 [Compound 150]
In Vivo Activity (s.c.) 300 nmol/kg (serum iron [3]; 300 nmol/kg): Yes

Isovaleric acid-DTHFPCIKF-NH2 [Compound 291]
% Activity At 1 uM (human ferroportin): 100%

Isovaleric acid-DTHFPCIKFEPRSKGCK-NH2 [Compound 184]
In Vivo Activity (s.c.) 300 nmol/kg (serum iron [3]; 300 nmol/kg): Yes
In Vivo Activity (s.c.) 1000 nmol/kg (serum iron [3]; 1000 nmol/kg): Yes

Isovaleric acid-DTHFPCIKFEPRSKGWVCK-NH2 [Compound 181]
In Vivo Activity (s.c.) 300 nmol/kg (serum iron [3]; 300 nmol/kg): Yes
serum iron, PK/PD effects (serum iron [4]): a rapid decrease in serum iron, which was transient

Isovaleric acid-DTHFPCIKFGPRSKGWVC-K(PEG8)-NH2 [Compound 153]
In Vivo Activity (s.c.) 300 nmol/kg (serum iron [3]; 300 nmol/kg): Yes
In Vivo Activity (s.c.) 1000 nmol/kg (serum iron [3]; 1000 nmol/kg): Yes
serum iron, PK/PD effects (serum iron [4]): sustained

Isovaleric acid-DTHFPCIKFGPRSKGWVCK-NH2 [Compound 9]
In Vivo Activity (s.c.) 300 nmol/kg (serum iron [3]; 300 nmol/kg): Yes
In Vivo Activity (s.c.) 1000 nmol/kg (serum iron [3]; 1000 nmol/kg): Yes

Isovaleric acid-DTHFPCIQFGPRSKGWVCK-NH2 [Compound 10]
In Vivo Activity (s.c.) 1000 nmol/kg (serum iron [3]; 1000 nmol/kg): Minor

Isovaleric acid-DTHFPICIFGPRS-K(PEG8)-GWVC-NH2 [Compound 176]
In Vivo Activity (s.c.) 300 nmol/kg (serum iron [3]; 300 nmol/kg): Yes

Isovaleric acid-DTHFPICIFGPRSKGWVC-NH2 [Compound 2]
serum iron level (serum iron [2]): a decrease in serum iron level that was comparable to that observed after injection of the positive control
In Vivo Activity (s.c.) 300 nmol/kg (serum iron [3]; 300 nmol/kg): Yes
In Vivo Activity (s.c.) 1000 nmol/kg (serum iron [3]; 1000 nmol/kg): Yes

Isovaleric acid-DTHFPSIIF-NH2 [Compound 290]
Potency EC50 (nM) (human ferroportin; Hepcidin analog peptides): Inactive

Isovaleric acid-HFPCIIFGPRSKGWVCK-NH2 [Compound 100]
Potency EC50 (nM) (human ferroportin; Hepcidin analog peptides): Inactive

Isovaleric acid-THFPCIIFGPRSKGWVCK-NH2 [Compound 98]
Potency EC50 (nM) (human ferroportin; Hepcidin analog peptides): Inactive

Palmitoyl-DTHFPCIKFGPRSKGWVCK-NH2 (cysteine pairing not given here) [Compound 216]
EC50 (human ferroportin; [5]): > 1000 nM
